Test results taken from the NIST ThermoML archive (doi:10.1021/je300848z).
Numbers after ± are expanded uncertainties. Values belong to the molecule of their own block, whether it stands above or below them.

Details: Liquid; for vapor or sublimation pressure: Ebulliometric method (Recirculating still)

SMILES: Cc1ccc(C)cc1 [1,4-dimethylbenzene]
vapor or sublimation pressure (379.85 K): 40 ± 0.34 kPa

vapor or sublimation pressure (371.05 K): 9.9 ± 0.2 kPa
vapor or sublimation pressure (375.35 K): 11.7 ± 0.2 kPa
vapor or sublimation pressure (385.85 K): 17.1 ± 0.2 kPa
vapor or sublimation pressure (394.25 K): 22.8 ± 0.2 kPa
vapor or sublimation pressure (399.5 K): 27.1 ± 0.2 kPa
vapor or sublimation pressure (403.5 K): 30.8 ± 0.2 kPa
vapor or sublimation pressure (405.85 K): 33.2 ± 0.2 kPa
vapor or sublimation pressure (411.9 K): 39.9 ± 0.2 kPa
vapor or sublimation pressure (412.05 K): 40 ± 0.2 kPa
vapor or sublimation pressure (419.05 K): 49.4 ± 0.3 kPa
vapor or sublimation pressure (425.2 K): 59 ± 0.3 kPa
vapor or sublimation pressure (431.15 K): 69.6 ± 0.3 kPa
vapor or sublimation pressure (436.65 K): 80.7 ± 0.3 kPa
vapor or sublimation pressure (441.45 K): 91.6 ± 0.3 kPa
vapor or sublimation pressure (445.4 K): 101.3 ± 0.3 kPa
Normal boiling temperature (Equilibrium Still): 172.2 ± 0.2 °C
SMILES: CCCCC(CC)CCl (centres undefined) [1-chloro-2-ethylhexane]

vapor or sublimation pressure (427.2 K): 40 ± 0.34 kPa
SMILES: CCCCC(CC)CO (centres undefined) [2-ethyl-1-hexanol]

vapor or sublimation pressure (441.8 K): 40 ± 0.34 kPa
SMILES: CN1CCCC1=O [N-methylpyrrolidone]
